In PMC6753678, “Fueling Open Innovation for Malaria Transmission-Blocking Drugs: Hundreds of Molecules Targeting Early Parasite Mosquito Stages” (Frontiers in Microbiology, 2019):
Like-named read-outs stand apart in the source and are kept apart here.

Key:
[1] = test system: 3D7-strain P. falciparum asexual parasites; assay: P. falciparum asexual growth inhibition assay (Pf GIA); format: cell-based, Plasmodium falciparum; conditions: dose response confirmation; read-out: Pf asexual growth inhibition assays IC50
In short: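 Read-out was lactate dehydrogenase activity measured by absorbance at 650 nm after freezing and thawing, against 50 μM chloroquine and DMSO controls. Before that, asexual 3D7 cultures (0.25% parasitemia, 2% hematocrit) had 72 h dose-response compound exposure at 37°C in 5% CO2/5% O2/90% N2; three independent replicates averaged.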

[2] = test system: HepG2 cells; assay: HepG2 cytotoxicity assay; conditions: for IC50: read-out: HepG2 cytotoxicity assay IC50, dose response confirmation; for Pb ODA (this manuscript) HepG2 cytoxicity: HepG2 cytotoxicity listed with the Pb ODA data set (this manuscript)
In short: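 Percent inhibition derived from fluorescent viability readout, normalised to DMSO (negative) and 50 μM doxorubicin (positive). Compound incubation lasted 48 h at 37°C, 5% CO2, with 2,500 HepG2 cells/well in MEM plus 10% FBS and 1% NEAA.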

[3] = test system: P. berghei ookinete development; conditions: for % inhibition, Replicate A / % inhibition, Replicate B: primary screen at 1 μM
[4] = unified HepG2 value across the three screens
[5] = read-out: Pb ODA IC50, this manuscript
[6] = read-out: Pb Ookinete development assay IC50, dose response confirmation
[7] = read-out: Pb ODA (this manuscript) IC50, P. berghei ookinete development assay, this manuscript
[8] = HepG2 values of the three screens unified

| SMILES | IC50 [1] | IC50 [2] | Unified cytotox [2, 4] | Is compound selective in assay? Pb ODA active? ([3]; 1: YES, 0: NO) | % inhibition, Replicate A [3] | % inhibition, Replicate B [3] | IC50 [3, 5] | IC50 [3, 6] | Pb ODA (this manuscript) HepG2 cytoxicity [2] | Is compound selective in assay? Pb ODA active? [3] | IC50 [3, 7] | Unified cytotox [2, 8] | % inhibition, Replicate A ([3]; 1 µM) | % inhibition, Replicate B ([3]; 1 µM) |
| --- | --- | --- | --- | --- | --- | --- | --- | --- | --- | --- | --- | --- | --- | --- |
| CC[C@@]1(O)C(=O)OCc2c1cc1n(c2=O)Cc2c-1nc1cc3c(cc1c2CN1CCN(C)CC1)OCCO3.Cl [TCMDC-131875] | 204 nM | 1260 nM | 1.26 µM | 0 (0: NO) | 61.11% | 69.44% | 2370 nM | 2370 nM |  |  |  |  |  |  |
| CC[C@@]1(O)C(=O)OCc2c1cc1n(c2=O)Cc2c-1nc1cc3c(cc1c2CN1CCOCC1)OCO3.O=C(O)C(F)(F)F [TCMDC-131876] | 7 nM | 470 nM | 0.47 µM | 0 (0: NO) | 79.37% | 70.89% | 1250 nM | 1250 nM |  |  |  |  |  |  |
| Nc1nc(N)c2c(ccc3c2cnn3Cc2cccnc2)n1 [TCMDC-131932] | 1.3 nM | 55 nM |  |  | 68.89% | 58.00% |  | 2390 nM | 0.055 µM | 0 (key: 1: YES; 0: NO) | 2390 nM |  |  |  |
| CN(C)S(=O)(=O)n1ncc2c3c(N)nc(N)nc3ccc21.Cl [TCMDC-131933] | 23 nM | 1 nM |  |  | 39.05% | 54.28% |  | 539 nM | 0.001 µM | 0 (key: 1: YES; 0: NO) | 540 nM |  |  |  |
| COc1ccc(Cn2ncc3c4c(N)nc(N)nc4ccc32)cc1OC [TCMDC-131934] | 58 nM | 2.14 nM |  |  | 44.86% | 51.03% |  | 1530 nM | 0.00214 µM | 0 (key: 1: YES; 0: NO) | 1530 nM |  |  |  |
| CCCCCCCc1cc(=O)c2ccccc2[nH]1 [TCMDC-132026] | 458 nM | 20600 nM |  |  | 86.88% | 74.93% |  | 1140 nM | 20.65 µM | 1 (key: 1: YES; 0: NO) | 1140 nM |  |  |  |
| Nc1c2ccccc2nc2ccc(Cl)cc12 [TCMDC-132029] | 324 nM | 13500 nM | 13.49 µM | 0 (0: NO) | 75.70% | 81.80% | 1460 nM | 1460 nM |  |  |  |  |  |  |
| COc1ccc2c(=O)c3ccc(OC)cc3[nH]c2c1 [TCMDC-132054] | 2420 nM | 100000 nM |  |  | 107.15% | 103.78% |  | 575 nM | 100.00 µM | 1 (key: 1: YES; 0: NO) | 580 nM |  |  |  |
| COc1ccc(C23Oc4cc(OC)cc(OC)c4C2(O)C2(CC3c3ccccc3)SCCCS2)cc1 (centres unmarked) [TCMDC-132098] | 712 nM | 100000 nM | 100.00 µM | 1 (1: YES) | 104.91% | 114.13% | 400 nM | 401 nM |  |  |  |  |  |  |
| COc1ccc(-c2ccc([N+](=O)[O-])cc2C(=O)NCC(C)Oc2ccc(C(F)(F)F)cc2)cc1 (centres unmarked) [TCMDC-132304] | 520 nM | 100000 nM | 100.00 µM | 1 (1: YES) | 29.22% | 50.52% | 4010 nM | 4010 nM |  |  |  |  |  |  |
| Cc1[nH]c(C)c(-c2ccc(-c3ccc(OCC(F)(F)F)cc3)nc2)c(=O)c1Cl [TCMDC-132306] | 655 nM | 100000 nM |  | 1 (1: YES) | 58.32% | 97.73% | 1240 nM | 1240 nM |  |  |  | 100.00 µM |  |  |
| Cc1[nH]c(C)c(-c2ccc(-c3ccc(C(F)F)cc3)nc2)c(=O)c1Cl [TCMDC-132329] | 1440 nM | 100000 nM |  | 1 (1: YES) | 72.54% | 35.56% | 7800 nM | 7800 nM |  |  |  | 100.00 µM |  |  |
| Cc1noc(C)c1-c1cccc(CNCc2ccc(-c3cccc(-c4nc5cc(F)ccc5[nH]4)c3)cc2)c1.O=C(O)C(F)(F)F [TCMDC-133060] | 1300 nM | 15500 nM | 15.49 µM | 0 (0: NO) | 12.93% | 53.61% | 13700 nM | 13700 nM |  |  |  |  |  |  |
| Cc1noc(C)c1-c1cccc(CNCc2ccc(-c3ccc(-c4nc5cccc(C)c5[nH]4)cc3)cc2)c1.O=C(O)C(F)(F)F [TCMDC-133061] | 120 nM | 7940 nM | 7.94 µM | 0 (0: NO) | 50.05% | 37.24% | 2660 nM | 2660 nM |  |  |  |  |  |  |
| Cc1cc(=O)c(-c2ccc(Oc3cccc(C(F)(F)F)c3)cc2)c(C)[nH]1 [TCMDC-133308] | 385 nM | 14400 nM |  |  |  |  |  | 733 nM | 14.45 µM | 1 (key: 1: YES; 0: NO) | 730 nM |  | 59.11% | 56.29% |
| COc1ccc(-c2cnc(N)c(-c3ccc(C(N)=O)cc3)c2)cc1OC [TCMDC-133349] | 666 nM | 100000 nM | 100.00 µM | 1 (1: YES) | 68.77% | 82.48% | 430 nM | 426 nM |  |  |  |  |  |  |
| O=C(Nc1ccc(OC2CCN(Cc3ccc(F)cc3)CC2)c(Cl)c1)c1cccs1.O=C(O)C(F)(F)F [TCMDC-133746] | 242 nM | 38900 nM |  |  | 51.32% | 44.22% |  | 1160 nM | 38.90 µM | 1 (key: 1: YES; 0: NO) | 1160 nM |  |  |  |
| O=C(Nc1ccc(OC2CCN(Cc3ccc(F)cc3)C2)c(Cl)c1)c1cccs1.O=C(O)C(F)(F)F (centres unmarked) [TCMDC-133757] | 187 nM | 25100 nM | 25.12 µM | 1 (1: YES) | 48.09% | 57.60% | 1910 nM | 1910 nM |  |  |  |  |  |  |
| O=C(Nc1ccc(OC2CCN(Cc3ccc(F)cc3)C2)c(Cl)c1)c1ccc(F)cc1.O=C(O)C(F)(F)F (centres unmarked) [TCMDC-133763] | 878 nM | 24600 nM | 24.55 µM | 0 (0: NO) | 33.23% | 66.02% | 2950 nM | 2950 nM |  |  |  |  |  |  |
